Test results taken from paper PMC5000642 (International Journal of Molecular Sciences, 2016).
Each block holds one molecule with its values, some of them ahead of it. Where a SMILES comes first, the peptide text is derived from it. [ ]: non-standard residue; d: D form.

Assays:
[1] = target: T1, endothelin A receptor (ETAR) (Homo sapiens, UniProt P25101); assay: Calcium mobilization antagonist assay in HEK293/ETAR cells evoked by […] ET-1 (cell line validation); type: cell-based
T1 construct: gene EDNRA
T1 sequence (P25101 21-427): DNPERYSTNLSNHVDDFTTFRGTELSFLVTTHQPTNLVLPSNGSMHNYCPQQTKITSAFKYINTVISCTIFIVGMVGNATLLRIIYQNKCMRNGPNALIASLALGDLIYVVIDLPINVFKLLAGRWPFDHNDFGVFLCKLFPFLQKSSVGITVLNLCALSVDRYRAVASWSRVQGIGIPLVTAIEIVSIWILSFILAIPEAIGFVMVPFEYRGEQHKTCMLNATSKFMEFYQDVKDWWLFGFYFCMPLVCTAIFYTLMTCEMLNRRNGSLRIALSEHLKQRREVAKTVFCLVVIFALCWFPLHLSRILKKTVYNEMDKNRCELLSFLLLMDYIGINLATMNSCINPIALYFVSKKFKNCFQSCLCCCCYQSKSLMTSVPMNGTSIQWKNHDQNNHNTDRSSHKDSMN

[2] = target: T1, endothelin A receptor (ETAR); assay: Calcium mobilization (Fluo-4) antagonist assay in HEK293/ETAR cells evoked by […] ET-1; selective over ETB, A1, AT1 and PAR1 cell lines; type: cell-based
[3] = target: T2, proteinase-activated receptor 1 (PAR1) (Homo sapiens, UniProt P25116); assay: cell-based; design: species or system HEK293; calcium mobilization assay in HEK293 cells stably expressing the human GPCR, agonist response
T2 construct: gene F2R; stably expressed in HEK293
T2 sequence (P25116 1-425): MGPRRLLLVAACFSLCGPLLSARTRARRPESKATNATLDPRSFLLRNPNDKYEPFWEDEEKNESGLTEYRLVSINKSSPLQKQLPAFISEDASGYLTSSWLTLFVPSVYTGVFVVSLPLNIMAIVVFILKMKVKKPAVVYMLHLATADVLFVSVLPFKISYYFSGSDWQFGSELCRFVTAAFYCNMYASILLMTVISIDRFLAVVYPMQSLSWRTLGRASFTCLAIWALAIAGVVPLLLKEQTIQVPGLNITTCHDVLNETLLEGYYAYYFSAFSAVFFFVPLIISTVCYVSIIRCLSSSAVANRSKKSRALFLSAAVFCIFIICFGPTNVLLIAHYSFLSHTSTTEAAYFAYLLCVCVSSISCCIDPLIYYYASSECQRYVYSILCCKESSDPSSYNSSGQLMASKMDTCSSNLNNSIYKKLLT
Description: To acquire the antagonist dose response, we tested the inhibitory effects of Sal A at different concentrations in the HEK293/ETAR cell line with 20 nM ET-1 stimulating. […] To omit a potential false positive, the cytotoxicity was tested in the HEK293/ETAR cell line by ATP CellTiter-Glo assay. In brief, Sal A was incubated in HEK293/ETAR cells for 30 min before luminescence signal measurement. […] The selectivity of Sal A was further assessed by calcium influx assay on 5 GPCRs. […] All cell lines were developed by standard procedures. Sal A was tested at a final concentration of 10 µM when cells were challenged with their selective agonists for antagonist identification. The selective antagonists of specific cell lines were used as positive control (Table S1). The HEK293 cell line was set up as the naïve group, and cells were challenged with 10 µM ATP as an agonist. […] The Gαq pathway is involved in ETAR activation, which increases intracellular Ca^2+. Based on this characteristic, a cell-based calcium mobilization assay has been used to study the function of GPCR and Ca^2+-permeable ion channels by measuring the changes of intracellular free Ca^2+ levels. In our previous study, recombinant ETAR in HEK293 cells was developed according to standard procedures. The utility of the cell line was validated using ETAR agonist (ET-1) and antagonist (BQ-123). […]

Structure (SMILES): CC(C)C[C@@H]1NC(=O)[C@@H](C(C)C)NC(=O)[C@@H]2CCCN2C(=O)[C@@H](CC(=O)O)NC(=O)[C@@H](Cc2c[nH]c3ccccc23)NC1=O [BQ-123] (cyclo(L[dW][dD]P[dV]))
IC50 [1]: 0.0001 µM

IC50 [2]: 5.7 µM
Structure (SMILES): O=C(/C=C/c1ccc(O)c(O)c1/C=C/c1ccc(O)c(O)c1)O[C@H](Cc1ccc(O)c(O)c1)C(=O)O [Sal A, Salvianolic acid A]

EC50 [3]: 0.89 µM
Structure (SMILES): CC(C)C[C@H](NC(=O)[C@H](CC(C)C)NC(=O)[C@H](Cc1ccccc1)NC(=O)[C@@H](N)CO)C(=O)N[C@@H](CCCN=C(N)N)C(=O)N[C@@H](CC(N)=O)C(=O)O [TRAP-6]
